Source: patent EP1242382B1, “TRICYCLIC PROTEIN KINASE INHIBITORS” (Wyeth, priority 1999, dated 2001)

Target: Mitogen Activated Protein Kinase (Mek-Erk) (Homo sapiens, UniProt P28482+Q02750)
Test: Mitogen Activated Protein Kinase (MAPK) two component coupled test procedure
Format: biochemical
Procedure: To evaluate inhibitors of the MAP (mitogen activated protein) kinase a two component coupled standard pharmacological test procedure, which measures phosphorylation of a serine/threonine residue in an appropriate sequence in the substrate in the presence and absence of a putative inhibitor, is used. Recombinant human MEK 1 (MAPKK) is first used to activate recombinant human ERK2 (MAPK) and the activated MAPK (ERK) is incubated with substrate (myelin basic protein peptide (MBPP) or Myc peptide) in the presence of ATP, Mg^+2 and radiolabeled ^33P ATP. The phosphorylated peptide is captured on a P 81 phosphocellulose filter (paper filter or embedded in microtiter plate) washed and counted by scintillation methods.
The peptide substrates used in the assay are MBPP, peptide substrate ([sequence]), or synthetic Myc substrate, ([sequence]•5 TFA). The recombinant enzymes used are prepared as GST fusion proteins of human ERK 2 and human MEK 1. […]
The reaction is run as follows in 50 mM Tris kinase buffer, pH 7.4 in a reaction volume of 50 ul. […] The filters are briefly air dried before addition of scintillant and samples are counted in the appropriate scintillation counter set up for reading ^33P isotope.
The raw data is captured as cpm. […] Mean cpm data is tabulated by group and % inhibition by a test compound is calculated as (corrected cpm control-corrected. cpm sample/control) X 100 = % inhibition).

Mitogen Activated Protein Kinase (Mek-Erk), sequence (Q02750 whole entry): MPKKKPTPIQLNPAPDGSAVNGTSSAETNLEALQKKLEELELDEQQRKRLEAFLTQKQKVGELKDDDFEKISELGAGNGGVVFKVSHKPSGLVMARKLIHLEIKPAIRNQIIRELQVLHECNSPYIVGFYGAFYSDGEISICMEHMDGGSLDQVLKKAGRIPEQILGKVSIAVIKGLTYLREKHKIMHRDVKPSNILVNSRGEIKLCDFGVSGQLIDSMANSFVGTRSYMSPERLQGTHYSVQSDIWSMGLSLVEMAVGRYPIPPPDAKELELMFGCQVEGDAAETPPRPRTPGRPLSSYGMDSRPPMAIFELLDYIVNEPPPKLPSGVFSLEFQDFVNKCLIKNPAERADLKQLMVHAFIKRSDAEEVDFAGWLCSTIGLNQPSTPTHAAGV
Mitogen Activated Protein Kinase (Mek-Erk), sequence (P28482 2-360): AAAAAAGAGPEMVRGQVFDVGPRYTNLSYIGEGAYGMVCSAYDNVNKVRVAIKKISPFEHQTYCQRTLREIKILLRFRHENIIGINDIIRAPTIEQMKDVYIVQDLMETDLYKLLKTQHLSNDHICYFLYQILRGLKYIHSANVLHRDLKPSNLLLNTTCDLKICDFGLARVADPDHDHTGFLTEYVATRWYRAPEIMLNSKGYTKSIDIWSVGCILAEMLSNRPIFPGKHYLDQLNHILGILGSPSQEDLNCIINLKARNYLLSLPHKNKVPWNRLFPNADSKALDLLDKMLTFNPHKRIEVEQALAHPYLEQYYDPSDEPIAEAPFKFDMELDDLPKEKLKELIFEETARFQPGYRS

| SMILES | IC50 |
| --- | --- |
| N#Cc1cnc2cc3c(cc2c1Nc1ccc(Oc2ccccc2)cc1)ncn3CCN1CCOCC1 [Example 58, 3-[2-(4-Morpholinyl)ethyl]-8-(4-phenoxyanilino)-3H-imidazo[4,5-g]quinoline-7-carbonitrile] | > 10 µM |
| N#Cc1cnc2c(oc3ccccc32)c1Nc1ccc(Oc2ccccc2)cc1 [Example 88, 4-(4-Phenoxyphenylamino)benzo[4,5]furo[3,2-b]pyridine-3-carbonitrile] | > 100 µM |
